This note sets out measurements from US10908153B2, “Pseudomonas aeruginosa inhibitor compounds” (priority 2015, dated 2021).

In the test the target is T1, PscE-PscG interaction (Pseudomonas aeruginosa, UniProt P95435+Q9I317).
T1 construct: made in house; host or cells: E. coli
The experiment in a line: ELISA test of inhibition of the PscE-PscG interaction. The conditions noted are these: for inhibition at 50 µM: 4 h, read-out: PscE-PscG at 50 μM; for inhibitory effect compared with clioquinol: ELISA test, 50 μM, Table 2; for PscE-PscG at 50 μM: inhibition by new synthetic analogues at 50 μM, PscG 2.2 μM, PscE solution 3 μM; for inhibition at 25 µM: read-out: % inhibition PscE-PscG at 50 μm. In kind it is binding. The protocol: 50 μL of PscG protein at 1 μM (for screening libraries) or 2.2 μM (for screening newly synthesized molecules) is incubated in a NUNC 96-well plate for 8 h at 4° C. The wells are washed three times with 200 μL of 1× PBS/0.1% Tween20®. The wells are treated overnight at 4° C. with 200 μL of a 5% milk solution in 1× PBS/0.1% Tween20®. The solution is then discarded, and the plate is drained dry.
The test is carried out as follows:
Negative control (lowest signal level): 100 μL of buffer ([…] Tris-HCl, 250 mM NaCl, pH 8.0);
Positive control (highest signal level): 50 μL of buffer and 50 μL of a test solution at 25 (library screening) or 3 μM (screening of analogue molecules) of the PscE protein;
Test of the inhibitors: 40 μL buffer, 50 μL of a solution at 25 μM (library screening) or 3 μM (screening of analogue molecules) of PscE protein and 10 μL of the solution containing the inhibitor to be tested.
The solutions are left for 4 h at room temperature.
The wells are washed three times with 200 μL of 1× PBS/0.1% Tween20®. The anti-PscE antibody diluted to 1:2,000 in 1× PBS/0.1% Tween20®, 50 μL, is added and the whole is left 2 h at room temperature. The wells are washed three times with 200 μL of 1× PBS/0.1% Tween20®. The HRP-conjugated anti-mouse antibody is diluted to 1:5,000 in 1× PBS/0.1% Tween20® and 50 μL is added and left for 2 h at room temperature. The wells are washed three times with 200 μL of 1× PBS/0.1% Tween20®.
The ELISA test is developed by adding 50 μL of TMB reagent followed by incubation for 15 minutes at room temperature in the dark. The reaction is stopped by adding 50 μL of 2N HCl. The plate is read at 450 nm.

T1 sequence (Q9I317 whole entry): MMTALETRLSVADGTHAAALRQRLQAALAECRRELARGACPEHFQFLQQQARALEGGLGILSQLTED
T1 sequence (P95435 whole entry): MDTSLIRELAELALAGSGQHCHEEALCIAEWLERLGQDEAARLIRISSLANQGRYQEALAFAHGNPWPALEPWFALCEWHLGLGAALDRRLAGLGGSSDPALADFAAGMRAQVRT

As for `[N-]=[N+]=NCCCCCCCCCCOCCCc1ccc[n+](CCCCCCCCCCOCCCc2cccnc2)c1` [molecule 30, 3-(3-(10-azidodecyloxy)propyl)-1-(10-(3-(pyridin-3-yl)propoxy)decyl)pyridinium chloride], the inhibition at 50 µM came to 52.8% and the “inhibitory effect compared with clioquinol” value is on record as “superior to clioquinol”.

Turning to `[N-]=[N+]=NCCCCCCOCCCc1ccc[n+](CCCCCCCCOCCCc2cccnc2)c1` [molecule 22, 3-(3-(6-azidohexyloxy)propyl)-1-(8-(3-(pyridin-3-yl)propoxy)octyl)pyridinium chloride], the inhibition at 50 µM was determined as 88.8% and the “inhibitory effect compared with clioquinol” value is given as “superior to clioquinol”.

As for `CC(=O)Oc1c(-c2cn(CCCCOCCCc3ccc[n+](CCCCOCCCc4cccnc4)c3)nn2)cc(Cl)c2cccnc12` [molecule 35, 3-(3-(4-(4-(8-acetoxy-5-chloroquinolin-7-yl)-1H-1,2,3-triazol-1-yl)butoxy)propyl)-1-(4-(3-(pyridin-3-yl)propoxy)butyl)pyridinium chloride], the inhibition at 50 µM was 29.8%.

On to `CC(=O)Oc1c(-c2cn(CCCCCCCCCCCCOCCCc3ccc[n+](CCCCCCCCCCCCOCCCc4cccnc4)c3)nn2)cc(Cl)c2cccnc12` [molecule 52, 3-(3-(12-(4-(8-acetoxy-5-chloroquinolin-7-yl)-1H-1,2,3-triazol-1-yl)dodecyloxy)propyl)-1-(12-(3-(pyridin-3-yl)propoxy)dodecyl)pyridinium chloride], for which the inhibition at 50 µM came out at 3.4%.

Turning to `CC(=O)Oc1c(-c2cn(CCCCCCCCCCOCCCc3ccc[n+](CCCCCCCCCCOCCCc4cccnc4)c3)nn2)cc(Cl)c2cccnc12` [molecule 48, 3-(3-(10-(4-(8-acetoxy-5-chloroquinolin-7-yl)-1H-1,2,3-triazol-1-yl)decyloxy)propyl)-1-(10-(3-(pyridin-3-yl)propoxy)decyl)pyridinium chloride], the inhibition at 50 µM worked out at 72.3% and the “inhibitory effect compared with clioquinol” value is on record as “superior to clioquinol”.

Regarding `CC(=O)Oc1c(-c2cn(CCCCCCOCCCc3ccc[n+](CCCCCCCCOCCCc4cccnc4)c3)nn2)cc(Cl)c2cccnc12` [molecule 40, 3-(3-(6-(4-(8-acetoxy-5-chloroquinolin-7-yl)-1H-1,2,3-triazol-1-yl)hexyloxy)propyl)-1-(8-(3-(pyridin-3-yl)propoxy)octyl)pyridinium chloride], the inhibition at 50 µM is 87.2% and the “inhibitory effect compared with clioquinol” value is given as “superior to clioquinol”.

For `[N-]=[N+]=NCCCCOCCCc1ccc[n+](CCCCCCCCOCCCc2cccnc2)c1` [molecule 20, 3-(3-(4-azidobutoxy)propyl)-1-(8-(3-(pyridin-3-yl)propoxy)octyl)pyridinium chloride], the “PscE-PscG at 50 μM” value is given as “no inhibition”.

On to `CC(=O)Oc1c(-c2cn(CCCCOCCCc3ccc[n+](CCCCCCCCOCCCc4cccnc4)c3)nn2)cc(Cl)c2cccnc12` [molecule 38, 3-(3-(4-(4-(8-acetoxy-5-chloroquinolin-7-yl)-1H-1,2,3-triazol-1-yl)butoxy)propyl)-1-(8-(3-(pyridin-3-yl)propoxy)octyl)pyridinium chloride], for which the inhibition at 50 µM came out at 27.3%.

With `CC(=O)Oc1c(-c2cn(CCCCCCOCCCc3ccc[n+](CCCCCCOCCCc4cccnc4)c3)nn2)cc(Cl)c2cccnc12` [molecule 39, 3-(3-(6-(4-(8-acetoxy-5-chloroquinolin-7-yl)-1H-1,2,3-triazol-1-yl)hexyloxy)propyl)-1-(6-(3-(pyridin-3-yl)propoxy)hexyl)pyridinium chloride], the inhibition at 50 µM amounted to 97.3% and the “inhibitory effect compared with clioquinol” value was “superior to clioquinol”.

For the molecule `[N-]=[N+]=NCCCCCCCCCCOCCCc1ccc[n+](CCCCCCOCCCc2cccnc2)c1` [molecule 24, 3-(3-(10-azidodecyloxy)propyl)-1-(6-(3-(pyridin-3-yl)propoxy)hexyl)pyridinium chloride], the inhibition at 50 µM turned out to be 38.6%.

As for `CC(=O)Oc1c(-c2cn(CCCCCCCCCCCCOCCCc3ccc[n+](CCCCOCCCc4cccnc4)c3)nn2)cc(Cl)c2cccnc12` [molecule 44, 3-(3-(12-(4-(8-acetoxy-5-chloroquinolin-7-yl)-1H-1,2,3-triazol-1-yl)dodecyloxy)propyl)-1-(4-(3-(pyridin-3-yl)propoxy)butyl)pyridinium chloride], the inhibition at 50 µM was found to be 33.4%.

For `CC(=O)Oc1c(-c2cn(CCCCCCOCCCc3ccc[n+](CCCCCCCCCCCCOCCCc4cccnc4)c3)nn2)cc(Cl)c2cccnc12` [molecule 46, 3-(3-(6-(4-(8-acetoxy-5-chloroquinolin-7-yl)-1H-1,2,3-triazol-1-yl)hexyloxy)propyl)-1-(12-(3-(pyridin-3-yl)propoxy)dodecyl)pyridinium chloride], the “PscE-PscG at 50 μM” value is recorded as “no inhibition”.

As to `CC(=O)Oc1c(-c2cn(CCCCCCCCCCCCOCCCc3ccc[n+](CCCCCCCCCCOCCCc4cccnc4)c3)nn2)cc(Cl)c2cccnc12` [molecule 51, 3-(3-(12-(4-(8-acetoxy-5-chloroquinolin-7-yl)-1H-1,2,3-triazol-1-yl)dodecyloxy)propyl)-1-(10-(3-(pyridin-3-yl)propoxy)decyl)pyridinium chloride], the inhibition at 50 µM worked out at 28.9%.

A word on the IC50: it is the point on the concentration scale where inhibition reaches its midpoint. Low readings indicate inhibition by little substance, high ones a need for much substance. On to `NC(CO)C(=O)NNCc1ccc(O)c(O)c1O` (stereo not drawn) [Benserazide, reference compound], for which the IC50 turned out to be 11 µM and the inhibition at 25 µM is 86.3%.

In the case of `CC(=O)Oc1c(-c2cn(CCCCCCCCCCOCCCc3ccc[n+](CCCCCCCCCCCCOCCCc4cccnc4)c3)nn2)cc(Cl)c2cccnc12` [molecule 50, 3-(3-(10-(4-(8-acetoxy-5-chloroquinolin-7-yl)-1H-1,2,3-triazol-1-yl)decyloxy)propyl)-1-(12-(3-(pyridin-3-yl)propoxy)dodecyl)pyridinium chloride], the inhibition at 50 µM worked out at 18.9%.

Consider `Cc1cc2c(C(C)C)c(O)c(O)c(C=O)c2c(O)c1-c1c(C)cc2c(C(C)C)c(O)c(O)c(C=O)c2c1O` [Gossypol, reference compound], for which the inhibition at 25 µM amounted to 73.9%.

With `CC(=O)Oc1c(-c2cn(CCCCCCCCOCCCc3ccc[n+](CCCCCCOCCCc4cccnc4)c3)nn2)cc(Cl)c2cccnc12` [molecule 41, 3-(3-(8-(4-(8-acetoxy-5-chloroquinolin-7-yl)-1H-1,2,3-triazol-1-yl)octyloxy)propyl)-1-(6-(3-(pyridin-3-yl)propoxy)hexyl)pyridinium chloride], the inhibition at 50 µM was found to be 69.1% and the “inhibitory effect compared with clioquinol” value was “superior to clioquinol”.

For `[N-]=[N+]=NCCCCCCCCCCCCOCCCc1ccc[n+](CCCCCCCCOCCCc2cccnc2)c1` [molecule 31, 3-(3-(12-azidododecyloxy)propyl)-1-(8-(3-(pyridin-3-yl)propoxy)octyl)pyridinium chloride], the inhibition at 50 µM amounted to 82.9% and the “inhibitory effect compared with clioquinol” value is “superior to clioquinol”.

As to `CC(=O)Oc1c(-c2cn(CCCCCCOCCCc3ccc[n+](CCCCOCCCc4cccnc4)c3)nn2)cc(Cl)c2cccnc12` [molecule 37, 3-(3-(6-(4-(8-acetoxy-5-chloroquinolin-7-yl)-1H-1,2,3-triazol-1-yl)hexyloxy)propyl)-1-(4-(3-(pyridin-3-yl)propoxy)butyl)pyridinium chloride], the inhibition at 50 µM worked out at 92.5% and the “inhibitory effect compared with clioquinol” value is listed as “superior to clioquinol”.

As to `CC1(C)CC[C@]2(C(=O)O)CC[C@]3(C)C(=CC[C@@H]4[C@@]5(C)CC[C@H](O)[C@@](C)(CO)[C@@H]5CC[C@]43C)[C@@H]2C1` [Hederagenin, reference compound], the inhibition at 25 µM is 58%.

Regarding `[N-]=[N+]=NCCCCOCCCc1ccc[n+](CCCCOCCCc2cccnc2)c1` [molecule 17, 3-(3-(4-azidobutoxy)propyl)-1-(4-(3-(pyridin-3-yl)propoxy)butyl)pyridinium chloride], the “PscE-PscG at 50 μM” value is on record as “no inhibition”.

On to `[N-]=[N+]=NCCCCCCCCCCCCOCCCc1ccc[n+](CCCCCCCCCCCCOCCCc2cccnc2)c1` [molecule 34, 3-(3-(12-azidododecyloxy)propyl)-1-(12-(3-(pyridin-3-yl)propoxy)dodecyl)pyridinium chloride], for which the inhibition at 50 µM worked out at 30.6%.

As to `[N-]=[N+]=NCCCCCCOCCCc1ccc[n+](CCCCOCCCc2cccnc2)c1` [molecule 19, 3-(3-(6-azidohexyloxy)propyl)-1-(4-(3-(pyridin-3-yl)propoxy)butyl)pyridinium chloride], the inhibition at 50 µM worked out at 19.8%.

As to `O=c1c(O)c(-c2cc(O)c(O)c(O)c2)oc2cc(O)cc(O)c12` [Myricetin, reference compound], the inhibition at 25 µM amounted to 80.5%.
